Test results reported in US4910208A, “Method of inhibiting leukotriene biosynthesis by oral administration of p-aminophenols or derivatives thereof” (E. R. Squibb & Sons, Inc., priority 1988, dated 1990).
Read-outs that look alike come from different tables or passages of the source.

Columns and labels:
[1] = test system: SRS-mediated bronchoconstriction; assay: Standard assay for inhibitors of SRS-mediated bronchoconstriction in sensitized guinea pigs; type: in vivo, guinea pig (male Hartly); details: 10 mg/kg, iv less than one minute before OA challenge
[2] = test system: SRS-mediated bronchoconstriction; assay: as above; type: in vivo, guinea pig (male Hartly); details: for ED50: Cavia porcellus, po, 1 h; for antiasthmatic activity when administered orally: oral
Protocol: Guinea pigs sensitized to ovalbumin and challenged intravenously with this antigen in the presence of the cyclooxygenase inhibitor, indomethacin (IM), an antihistamine, methapyriline, and a beta-antagonist, propranolol,undergo a delayed (3-13 minutes) bronchospasm, presumed due to the synthesis and release of SRS (leukotriene C, D, and E). A Buxco respiratory mechanics analyzer is used to evaluate the in vivo efficacy of inhibitors of the lipoxygenase pathway in this model of SRS-mediated bronchoconstriction. This system monitors pulmonary air flow, through use of a whole body plethysomgraph, and transpulmonary pressure, from tracheal and intrapleural catheters. Tidal volume is derived from the flow signal by integration, and airway resistance (R) and dynamic compliance (^C dyn) are continuously computed by the system from the primary flow, volume, and pressure parameters. In addition, the system continuously monitors blood pressure and heart rate.
Male Hartly guinea pigs (200 g) ar sensitized by injecting ovalbumin (OA) (10 mg/kg) (each injection also contains 16 mg Amphojel) ip o days 0 and 2. These animals are normally used on days 10-18 following initial sensitization.
On the test day animals are anesthetized by ip injection of urethane (1.2-1.5 g/kg. The jugular vein and carotid artery are catheterized using intramedic PR50 tubing. The trachea is catheterized using intramedic PE240 tubing. Spontaneous respiration is arrested by injecting succinyl choline (2.0 mg/kg, iv) into the jugular vein, and the animal is artificially respirated at 48 breaths/minute with a volume of 4.0 ml/breath. Intramedic PE200 tubing is inserted through the chest wall into the intrapleural space, and the tracheal (by sidearm attachment) and intrapleural cannulas are attached to a single pressure transducer in order to obtain the transpulmonary pressure. The standard protocol requires an initial injection of indomethacin (meglumine salt) (10 mg/kg, iv). Five minutes later antihistamine (methapyrilene, 2 mg/kg, iv) is given, followed one minute later by propranolol (0.1 mg/kg, iv) to induce leukotriene induced bronchoconstriction with no histamine-induced bronchoconstriction and no beta-agonistic bronchoconstriction. Respiratory parameters are then allowed to stabilize for 5-15 minutes. Drugs are tested for oral activity by giving the compound by gavage to 18 hour fasted animals one hour prior to anesthetization. At restabilization, base lines are recorded by the computer for all parameters. To induce bronchoconstriction, a challenge dose of OA (0.4 mg/kg, iv) is given.
Results are expressed as % of baseline values after antigen challenge for R and ^C dyn, and percent inhibition is calculated by comparing % changes in baseline values between control (vehicle) and drug treated test groups.
Statistical significance is determined using a two tailed, unpaired T-test. Drug effects with p<0.05 will be considered significant.
Test compounds were evaluated for their ability to inhibit SRS-mediated changes in dynamic compliance (^C dyn) and resistance (R) as compared to the medicated (indomethacin-methapyrilenepropranolol) control group.

[3] = 5.0 mg/kg P.O., one hour before i.v. antigen challenge
[4] = 12.5 mg/kg P.O., one hour before i.v. antigen challenge
[5] = 25.0 mg/kg P.O., one hour before i.v. antigen challenge
[6] = 50.0 mg/kg P.O., one hour before i.v. antigen challenge
[7] = P.O., one hour before i.v. antigen challenge, read-out: ED50^Cdyn (dose producing 50% inhibition of SRS-mediated changes in dynamic compliance)
[8] = P.O., one hour before i.v. antigen challenge, read-out: ED50^R (dose producing 50% inhibition of SRS-mediated changes in resistance)
[9] = 3.0 mg/kg P.O., one hour before i.v. antigen challenge
[10] = 6.0 mg/kg P.O., one hour before i.v. antigen challenge
[11] = 9.0 mg/kg P.O., one hour before i.v. antigen challenge

Row | Compound | Dynamic Compliance (Cdyn), % of baseline following antigen challenge (mean ± S.E.) [2, 4] | Dynamic Compliance (Cdyn), Inhibition (%) [2, 4] | Resistance (R), % of baseline following antigen challenge (mean ± S.E.) [2, 4] | Resistance (R), Inhibition (%) [2, 4] | Dynamic Compliance (Cdyn), % of baseline following antigen challenge (mean ± S.E.) [2, 5] | Dynamic Compliance (Cdyn), Inhibition (%) [2, 5] | Resistance (R), % of baseline following antigen challenge (mean ± S.E.) [2, 5] | Resistance (R), Inhibition (%) [2, 5] | Dynamic Compliance (Cdyn), % of baseline following antigen challenge (mean ± S.E.) [2, 6] | Dynamic Compliance (Cdyn), Inhibition (%) [2, 6] | Resistance (R), % of baseline following antigen challenge (mean ± S.E.) [2, 6] | Resistance (R), Inhibition (%) [2, 6] | ED50 [2, 7] | ED50 [2, 8] | antiasthmatic activity when administered orally [2] | further results
1 | CCCc1c(OCC(O)COc2ccc3c(=O)cc(C(=O)O)oc3c2CCC)ccc(C(C)=O)c1O (stereo not shown) [FPL-55712] | – | – | – | – | – | – | – | – | – | – | – | – | – | – | – | inhibition of bronchoconstriction as measured by effects on R and Cdyn [1]: 100%
2 | COc1ccc2cc(Nc3ccc(O)cc3)ccc2c1 [Example 2, 4-[(6-Methoxy-2-naphthyl)amino]phenol] | 44 ± 5 % of Baseline | 33% | 231 ± 39 % of Baseline | 57% | 62 ± 7 % of Baseline | 52% | 194 ± 42 % of Baseline | 69% | 66 ± 4 % of Baseline | 57% | 149 ± 11 % of Baseline | 84% | 23.8 mg/kg | 6 mg/kg | exhibit antiasthmatic activity | Dynamic Compliance (Cdyn), % of baseline following antigen challenge (mean ± S.E.) [2, 3]: 23 ± 7 % of Baseline; Dynamic Compliance (Cdyn), Inhibition (%) [2, 3]: 3%; Resistance (R), % of baseline following antigen challenge (mean ± S.E.) [2, 3]: 335 ± 74 % of Baseline; Resistance (R), Inhibition (%) [2, 3]: 23%; oral activity ([2]; P.O., one hour before antigen challenge): orally active; ED50^Cdyn (dose producing 50% inhibition of SRS-mediated changes in dynamic compliance) ([2]; P.O., one hour before i.v. antigen challenge): 23.8(14.1-51.7) mg/kg
3 | COc1ccc2cc(N(C)c3ccc(O)cc3)ccc2c1 [Example 17] | 64 ± 7 % of Baseline | 56% | 136 ± 10 % of Baseline | 88% | 57 ± 10 % of Baseline | 47% | 149 ± 23 % of Baseline | 82% | – | – | – | – | 6 to 9 mg/kg | 6 to 9 mg/kg | exhibit antiasthmatic activity | Dynamic Compliance (Cdyn), % of baseline following antigen challenge (mean ± S.E.) [2, 9]: 19 ± 11 % of Baseline; Dynamic Compliance (Cdyn), Inhibition (%) [2, 9]: 0%; Resistance (R), % of baseline following antigen challenge (mean ± S.E.) [2, 9]: 467 ± 134 % of Baseline; Resistance (R), Inhibition (%) [2, 9]: 0%; Dynamic Compliance (Cdyn), % of baseline following antigen challenge (mean ± S.E.) [2, 10]: 31 ± 20 % of Baseline; Dynamic Compliance (Cdyn), Inhibition (%) [2, 10]: 15%; Resistance (R), % of baseline following antigen challenge (mean ± S.E.) [2, 10]: 374 ± 132 % of Baseline; Resistance (R), Inhibition (%) [2, 10]: 1%; Dynamic Compliance (Cdyn), % of baseline following antigen challenge (mean ± S.E.) [2, 11]: 64 ± 8 % of Baseline; Dynamic Compliance (Cdyn), Inhibition (%) [2, 11]: 56%; Resistance (R), % of baseline following antigen challenge (mean ± S.E.) [2, 11]: 141 ± 28 % of Baseline; Resistance (R), Inhibition (%) [2, 11]: 85%; inhibition of antigen-induced bronchoconstriction ([2]; PO one hour before antigen challenge): significantly inhibited
4 | COc1ccc(Nc2ccc(O)cc2)c(CO)c1 [SQ 30,624, 2-[(4-Hydroxyphenyl)amino]-5-methoxybenzenemethanol, reference compound] | – | – | – | – | – | – | – | – | 4 ± 3 % of Baseline | 0% | 386 ± 64 % of Baseline | 15% | – | – | did not have antiasthmatic activity | oral activity ([2]; dose of 50 mg/kg P.O.): orally inactive
